Assays:
ALK = ALK (Homo sapiens, UniProt Q9UM73); test: Kinase selectivity profile; type: biochemical
ErbB2 (HER2) = ErbB2 (HER2) (Homo sapiens, UniProt P04626); test: Kinase selectivity profile; type: biochemical
BRAF (wt) = BRAF (wt) (Homo sapiens, UniProt P15056); test: Kinase selectivity profile; type: biochemical
PTK2 (FAK) = PTK2 (FAK) (Homo sapiens, UniProt Q05397); test: Kinase selectivity profile; type: biochemical
A549 = test: MTT anti-proliferative assay, A549; type: cell-based, human; details: Homo sapiens, A549; MTT, 48 h
Experimental: (§2) All cell lines were purchased from Cell Bank of China Science Academy (Shanghai, China). All chemicals and solvents were purchased from Sigma-Aldrich (St. Louis, MO, USA) or Gibco (Gibco BRL, Grand Island, NY, USA). The PC-3 and A375 cell lines was maintained in Dulbecco's modified eagle (DEME) medium supplement with 10% fetal bovine serum (FBS) and 1% penicillin–streptomycin. The others were cultured in Roswell Park Memorial Institute (RPMI) 1640 medium supplement with 10% fetal bovine serum (FBS) and 1% penicillin–streptomycin. Approximately 5 × 10^3 cells, suspended in medium, were plated into each well of a 96-well plate and grown at 37 °C in a humidified atmosphere with 5% CO2 for 24 h. The following day, various concentrations of tested compounds were added to the culture medium and incubated for 48 h. Fresh MTT was added to each well at the terminal concentration of 5 mg/mL in phosphate buffered saline (PBS), and incubated with cells at 37 °C for 4 h. The formazan crystals in each well were dissolved in 150 μL DMSO, and the absorbency at 570 nm was measured with an enzyme-linked immunosorbent assay plate reader. All of the compounds were tested three times in each of the cell lines.

A375 = test: MTT anti-proliferative assay, A375; type: cell-based; details: Homo sapiens, A-375, 48 h
Experimental: as §2

[1] = tested on: phosphor-MEK protein in HT-29 cell line; test: Western blot of phosphor-MEK, HT-29; type: cell-based, human; details: HT-29, 48 h treatment
Experimental: (§1) Total cells were harvested after treatment, washed twice with cold PBS, and lysed with RIPA lysis buffer (KeyGEN BioTECH, Nanjing, China) including 1% cocktail (Selleck Chemicals, Houston, TX, USA). Lysates were centrifuged at 12,000× g at 4 °C for 15 min, and the supernatant was collected. Total protein concentration was quantified using the bicinchoninic acid (BCA; Beyotime Institute of Biotechnology, Nanjing, China) protein assay kit (Sigma Chemical Co., St. Louis, MO, USA). The proteins were separated electrophoretically using 10% sodium dodecyl sulfate polyacrylamide gel electrophoresis (SDS-PAGE) and then the gel was transferred onto polyvinylidene fluoride (PVDF; Millipore, Billerica, MA, USA) membranes. […] The immunobands were detected with an enhanced chemiluminescence kit (Beyotime Institute of Biotechnology, Nanjing, China).

VEGFR-2 = VEGFR-2 (Homo sapiens, UniProt P35968); test: Kinase selectivity profile; type: biochemical
PC-3 = test: MTT anti-proliferative assay, PC-3; type: cell-based, human; details: Homo sapiens, PC-3; MTT, 48 h
Experimental: as §2

AURKA (Aurora A) = AURKA (Aurora A) (Homo sapiens, UniProt O14965); test: Kinase selectivity profile; type: biochemical
MET (c-Met) = MET (c-Met) (Homo sapiens, UniProt P08581); test: Kinase selectivity profile; type: biochemical
EPHA2 = EPHA2 (Homo sapiens, UniProt P29317); test: Kinase selectivity profile; type: biochemical
RAF1 (CRAF) = RAF1 (CRAF) (Homo sapiens, UniProt P04049); test: Kinase selectivity profile; type: biochemical
RAF1 (CRAF), sequence (P04049 342-648 limits assumed): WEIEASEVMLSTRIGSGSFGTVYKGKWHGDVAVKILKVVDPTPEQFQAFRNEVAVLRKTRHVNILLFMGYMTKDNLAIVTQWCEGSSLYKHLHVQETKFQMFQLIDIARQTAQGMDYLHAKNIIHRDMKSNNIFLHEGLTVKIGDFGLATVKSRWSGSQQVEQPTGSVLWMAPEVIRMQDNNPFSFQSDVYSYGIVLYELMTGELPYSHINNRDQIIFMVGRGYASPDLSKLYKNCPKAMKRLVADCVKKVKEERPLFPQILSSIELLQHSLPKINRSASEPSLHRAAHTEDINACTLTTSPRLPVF

AURKB (Aurora B) = AURKB (Aurora B) (Homo sapiens, UniProt Q96GD4); test: Kinase selectivity profile; type: biochemical
AURKB (Aurora B), sequence (Q96GD4 whole entry): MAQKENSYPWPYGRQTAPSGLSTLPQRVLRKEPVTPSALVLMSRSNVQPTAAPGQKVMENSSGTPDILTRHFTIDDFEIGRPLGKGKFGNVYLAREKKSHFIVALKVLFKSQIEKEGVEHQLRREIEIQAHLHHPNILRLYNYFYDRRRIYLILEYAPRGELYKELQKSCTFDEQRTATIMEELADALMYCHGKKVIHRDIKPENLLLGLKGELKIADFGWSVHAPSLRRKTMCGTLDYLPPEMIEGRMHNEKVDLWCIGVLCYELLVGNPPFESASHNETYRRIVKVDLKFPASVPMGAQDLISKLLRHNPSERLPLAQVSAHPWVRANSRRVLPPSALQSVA

BRAF^V600E = target: T1, BRAF^V600E (Homo sapiens, UniProt P15056, V600E); test: BRAF^V600E kinase inhibition, Z'-LYTE; type: biochemical
T1 construct: purchased Life Technologies
T1 sequence (P15056 whole entry V600E): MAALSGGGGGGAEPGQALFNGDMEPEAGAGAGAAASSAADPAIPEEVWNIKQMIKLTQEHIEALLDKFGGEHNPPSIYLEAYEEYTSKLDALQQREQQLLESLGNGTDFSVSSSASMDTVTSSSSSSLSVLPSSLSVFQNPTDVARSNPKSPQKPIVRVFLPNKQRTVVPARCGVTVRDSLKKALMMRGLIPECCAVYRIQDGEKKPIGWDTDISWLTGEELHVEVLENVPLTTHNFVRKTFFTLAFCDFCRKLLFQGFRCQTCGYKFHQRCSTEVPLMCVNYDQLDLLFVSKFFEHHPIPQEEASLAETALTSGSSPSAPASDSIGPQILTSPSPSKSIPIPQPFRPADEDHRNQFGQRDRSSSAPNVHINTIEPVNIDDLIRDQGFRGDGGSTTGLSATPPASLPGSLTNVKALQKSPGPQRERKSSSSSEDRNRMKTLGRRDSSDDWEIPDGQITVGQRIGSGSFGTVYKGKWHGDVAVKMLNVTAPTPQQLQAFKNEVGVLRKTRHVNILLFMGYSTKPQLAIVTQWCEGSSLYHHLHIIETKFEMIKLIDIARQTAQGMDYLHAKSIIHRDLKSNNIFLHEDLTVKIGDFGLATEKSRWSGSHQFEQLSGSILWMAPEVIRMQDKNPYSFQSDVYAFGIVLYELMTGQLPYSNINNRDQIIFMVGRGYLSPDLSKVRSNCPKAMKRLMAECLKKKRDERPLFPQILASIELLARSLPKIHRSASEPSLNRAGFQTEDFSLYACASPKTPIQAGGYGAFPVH
Experimental: The experiments were performed according to the instructions of the manufacturer, and single point concentration testing with two independent data points (n = 2). […] The IC50 values were calculated from the inhibition curves from two separate experiments.

ABL2 (Arg) = ABL2 (Arg) (Homo sapiens, UniProt P42684); test: Kinase selectivity profile; type: biochemical
ABL2 (Arg), sequence (P42684 whole entry): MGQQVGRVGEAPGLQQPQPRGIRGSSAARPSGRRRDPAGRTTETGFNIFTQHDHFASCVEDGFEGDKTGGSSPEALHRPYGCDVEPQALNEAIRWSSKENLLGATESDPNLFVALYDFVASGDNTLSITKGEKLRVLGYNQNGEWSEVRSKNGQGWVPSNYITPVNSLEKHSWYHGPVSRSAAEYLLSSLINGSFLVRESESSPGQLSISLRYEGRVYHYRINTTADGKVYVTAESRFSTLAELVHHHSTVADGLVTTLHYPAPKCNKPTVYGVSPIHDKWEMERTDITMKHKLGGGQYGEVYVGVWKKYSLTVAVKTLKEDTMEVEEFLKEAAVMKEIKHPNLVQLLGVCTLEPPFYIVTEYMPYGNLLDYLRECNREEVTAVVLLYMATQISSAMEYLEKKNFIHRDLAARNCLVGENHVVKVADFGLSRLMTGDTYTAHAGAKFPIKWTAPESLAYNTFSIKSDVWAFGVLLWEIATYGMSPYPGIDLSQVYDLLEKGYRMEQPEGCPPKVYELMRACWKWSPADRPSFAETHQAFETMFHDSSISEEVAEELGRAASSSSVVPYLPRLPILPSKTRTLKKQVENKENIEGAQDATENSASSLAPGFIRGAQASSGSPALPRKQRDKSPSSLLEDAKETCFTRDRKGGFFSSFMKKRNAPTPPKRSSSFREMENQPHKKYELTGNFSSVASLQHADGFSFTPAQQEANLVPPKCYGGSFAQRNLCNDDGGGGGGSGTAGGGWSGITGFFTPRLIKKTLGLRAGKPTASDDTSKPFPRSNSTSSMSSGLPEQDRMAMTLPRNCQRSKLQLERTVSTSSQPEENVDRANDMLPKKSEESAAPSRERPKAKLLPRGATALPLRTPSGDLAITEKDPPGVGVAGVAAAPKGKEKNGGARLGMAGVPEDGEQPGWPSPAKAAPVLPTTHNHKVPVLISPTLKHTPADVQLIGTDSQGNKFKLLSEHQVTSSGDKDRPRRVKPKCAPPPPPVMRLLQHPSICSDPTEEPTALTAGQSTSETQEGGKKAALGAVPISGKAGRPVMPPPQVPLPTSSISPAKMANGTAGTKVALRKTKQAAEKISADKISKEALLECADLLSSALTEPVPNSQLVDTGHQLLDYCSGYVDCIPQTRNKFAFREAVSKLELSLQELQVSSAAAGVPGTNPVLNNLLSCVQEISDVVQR

[2] = tested on: phosphor-MEK protein in A375 cell line; test: Western blot of phosphor-MEK, A375; type: cell-based, human; details: A375, 48 h treatment
Experimental: as §1

EGFR (ErbB1) = EGFR (ErbB1) (Homo sapiens, UniProt P00533); test: Kinase selectivity profile; type: biochemical
FLT1 (VEGFR1) = FLT1 (VEGFR1) (Homo sapiens, UniProt P17948); test: Kinase selectivity profile; type: biochemical
HT-29 = test: MTT anti-proliferative assay, HT-29; type: cell-based; details: Homo sapiens, 48 h
Experimental: as §2

[3] = MTT cytotoxic assay, normal cell line MDCK; details: dog, MDCK cells (normal cell line)
Experimental: as §2

MST1R (RON) = MST1R (RON) (Homo sapiens, UniProt Q04912); test: Kinase selectivity profile; type: biochemical
ErbB4 (HER4) = ErbB4 (HER4) (Homo sapiens, UniProt Q15303); test: Kinase selectivity profile; type: biochemical
ABL1 = ABL1 (Homo sapiens, UniProt P00519); test: Kinase selectivity profile; type: biochemical
FLT4 (VEGFR3) = FLT4 (VEGFR3) (Homo sapiens, UniProt P35916); test: Kinase selectivity profile; type: biochemical
FLT4 (VEGFR3), sequence (P35916 25-1363): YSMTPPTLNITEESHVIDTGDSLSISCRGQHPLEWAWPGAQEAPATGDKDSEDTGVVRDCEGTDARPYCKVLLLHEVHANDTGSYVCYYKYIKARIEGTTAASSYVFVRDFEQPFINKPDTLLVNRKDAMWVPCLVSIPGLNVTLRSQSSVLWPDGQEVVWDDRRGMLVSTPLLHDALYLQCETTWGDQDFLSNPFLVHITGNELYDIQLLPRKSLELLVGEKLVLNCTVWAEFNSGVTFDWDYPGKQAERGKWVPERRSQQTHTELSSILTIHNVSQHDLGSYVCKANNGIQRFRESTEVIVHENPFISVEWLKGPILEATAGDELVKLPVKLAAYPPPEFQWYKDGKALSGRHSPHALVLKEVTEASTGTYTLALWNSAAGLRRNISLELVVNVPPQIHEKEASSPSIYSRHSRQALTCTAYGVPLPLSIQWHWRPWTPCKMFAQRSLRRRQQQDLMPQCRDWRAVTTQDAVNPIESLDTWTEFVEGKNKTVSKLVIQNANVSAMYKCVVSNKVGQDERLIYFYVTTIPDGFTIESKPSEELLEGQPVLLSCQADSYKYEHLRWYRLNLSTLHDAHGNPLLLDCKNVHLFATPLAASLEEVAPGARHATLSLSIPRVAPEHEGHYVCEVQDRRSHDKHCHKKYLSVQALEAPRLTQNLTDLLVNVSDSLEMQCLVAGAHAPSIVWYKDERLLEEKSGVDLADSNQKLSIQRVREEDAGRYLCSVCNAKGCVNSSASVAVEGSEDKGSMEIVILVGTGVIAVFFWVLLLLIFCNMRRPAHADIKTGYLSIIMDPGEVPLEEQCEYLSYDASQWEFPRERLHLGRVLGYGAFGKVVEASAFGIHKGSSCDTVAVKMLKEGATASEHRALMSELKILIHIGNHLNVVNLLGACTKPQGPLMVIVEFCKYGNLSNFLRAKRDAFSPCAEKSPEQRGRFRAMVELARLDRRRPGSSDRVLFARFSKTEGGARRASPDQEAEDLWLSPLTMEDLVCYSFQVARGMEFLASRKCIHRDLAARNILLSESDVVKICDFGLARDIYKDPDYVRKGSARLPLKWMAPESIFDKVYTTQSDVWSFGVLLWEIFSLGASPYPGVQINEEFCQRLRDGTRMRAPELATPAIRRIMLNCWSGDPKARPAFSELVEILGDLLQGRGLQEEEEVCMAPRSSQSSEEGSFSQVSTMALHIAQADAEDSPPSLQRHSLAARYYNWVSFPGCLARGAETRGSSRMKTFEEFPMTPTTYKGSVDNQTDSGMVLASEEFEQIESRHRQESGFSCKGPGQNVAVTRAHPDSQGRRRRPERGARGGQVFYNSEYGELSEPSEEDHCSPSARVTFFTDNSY

LCK = LCK (Homo sapiens, UniProt P06239); test: Kinase selectivity profile; type: biochemical
A375 cell line = test: Flow cytometric analysis of cell cycle distribution; type: cell-based, human; details: for G0/G1 (%) / G2/M (%) / S (%) / Sub-G1 (%): 48 h
Experimental: The effect of compound 1v on cell cycle phase distribution of human malignant melanoma A375 was assessed using flow cytometry. When the cells grew to about 70% confluence in 6-well microplates, they were treated with compound 1v at given concentrations (6.11 μmol/L, 12.21 μmol/L, 24.42 μmol/L). After 48 h, cells were harvested by trypsinization, washed with PBS, and fixed in 70% ice cold (4 °C) ethanol overnight. They were then washed with PBS, incubated with Ribonuclease (RNase) ([…] final concentration) at 37 °C for 30 min, stained with propidium iodide ([…] final concentration), and analyzed by flow cytometry (BD FACS Canto II, BD Biosciences, San Jose, CA, USA).

LTK (TYK1) = LTK (TYK1) (Homo sapiens, UniProt P29376); test: Kinase selectivity profile; type: biochemical
LTK (TYK1), sequence (P29376 17-864): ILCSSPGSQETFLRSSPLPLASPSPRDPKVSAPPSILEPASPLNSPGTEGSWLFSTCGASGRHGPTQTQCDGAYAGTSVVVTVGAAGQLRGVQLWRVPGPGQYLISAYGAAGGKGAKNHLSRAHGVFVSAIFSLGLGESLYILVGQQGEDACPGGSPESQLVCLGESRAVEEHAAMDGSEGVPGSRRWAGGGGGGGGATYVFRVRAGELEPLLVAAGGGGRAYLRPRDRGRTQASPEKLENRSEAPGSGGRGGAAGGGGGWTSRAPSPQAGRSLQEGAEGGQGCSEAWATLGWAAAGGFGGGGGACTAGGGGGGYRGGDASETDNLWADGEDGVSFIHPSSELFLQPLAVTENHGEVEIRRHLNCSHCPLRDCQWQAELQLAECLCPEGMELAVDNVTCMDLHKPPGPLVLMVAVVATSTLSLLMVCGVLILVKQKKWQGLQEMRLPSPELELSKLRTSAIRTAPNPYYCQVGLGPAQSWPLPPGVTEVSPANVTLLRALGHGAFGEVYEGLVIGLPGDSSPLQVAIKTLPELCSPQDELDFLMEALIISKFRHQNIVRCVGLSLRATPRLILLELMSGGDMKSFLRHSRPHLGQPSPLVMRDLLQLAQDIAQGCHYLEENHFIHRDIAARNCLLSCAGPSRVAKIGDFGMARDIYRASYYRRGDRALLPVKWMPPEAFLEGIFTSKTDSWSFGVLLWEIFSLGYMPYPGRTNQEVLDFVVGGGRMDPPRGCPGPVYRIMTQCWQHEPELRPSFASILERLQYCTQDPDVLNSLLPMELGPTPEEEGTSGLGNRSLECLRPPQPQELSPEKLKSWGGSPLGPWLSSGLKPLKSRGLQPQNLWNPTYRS

BRAF (wt), sequence (P15056 whole entry): as the sequence (P15056 whole entry V600E) above, with E600V counted along it

Cn1ncc2c(Oc3ccc(NC(=O)Nc4ccc(Cl)c(C(F)(F)F)c4)cc3)ncnc21 [Compound 1v, 1-(4-Chloro-3-(trifluoromethyl)phenyl)-3-(4-((1-methyl-1H-pyrazolo[3,4-d]pyrimidin-4-yl)oxy)phenyl)urea]
Inhibition % at 1 μΜ, ALK (ALK): 7%
Inhibition % at 1 μΜ, ErbB2 (HER2) (ErbB2 (HER2)): −7%
Inhibition % at 1 μΜ, BRAF (wt) (BRAF (wt); 1 μΜ): 105%
IC50 (BRAF (wt); in parentheses in Table 4, read-out: wild-type BRAF IC50): 0.0515 µM
Inhibition % at 1 μΜ, PTK2 (FAK) (PTK2 (FAK)): 13%
IC50 (A549): 12.5 µM
IC50 (A375): 12.2 µM
phosphor-MEK levels (western blot) [1]: suppressed phosphor-MEK levels in a concentration-dependent manner
Inhibition % at 1 μΜ, VEGFR-2 (VEGFR-2): 56%
IC50 (PC-3): 23.4 µM
Inhibition % at 1 μΜ, AURKA (Aurora A) (AURKA (Aurora A)): 17%
Inhibition % at 1 μΜ, MET (c-Met) (MET (c-Met)): 6%
Inhibition % at 1 μΜ, EPHA2 (EPHA2): 2%
Inhibition % at 1 μΜ, RAF1 (CRAF) (RAF1 (CRAF); 1 μΜ): 102%
IC50 (RAF1 (CRAF); in parentheses in Table 4, read-out: C-RAF IC50): 0.0085 µM
Inhibition % at 1 μΜ, AURKB (Aurora B) (AURKB (Aurora B)): 42%
inhibition at 0.1 µM (BRAF^V600E; 100 nM, average of two independent experiments): 81%
inhibition at 1 µM (BRAF^V600E; 1000 nM, average of two independent experiments): 97%
IC50 (BRAF^V600E; ten concentrations 1000 to 0.0508 nM, two independent experiments): 0.0236 µM
Inhibition % at 1 μΜ, ABL2 (Arg) (ABL2 (Arg)): 4%
phosphor-MEK levels (western blot) [2]: suppressed phosphor-MEK levels in a concentration-dependent manner
Inhibition % at 1 μΜ, EGFR (ErbB1) (EGFR (ErbB1)): 8%
Inhibition % at 1 μΜ, FLT1 (VEGFR1) (FLT1 (VEGFR1)): 31%
IC50 (HT-29): 14.7 µM
IC50 at 48 h [3]: > 80 µM
Inhibition % at 1 μΜ, MST1R (RON) (MST1R (RON)): −2%
melting point: 212.1 to 213 °C
Inhibition % at 1 μΜ, ErbB4 (HER4) (ErbB4 (HER4)): 7%
Inhibition % at 1 μΜ, ABL1 (ABL1): 5%
Inhibition % at 1 μΜ, FLT4 (VEGFR3) (FLT4 (VEGFR3)): 58%
Inhibition % at 1 μΜ, LCK (LCK): 20%
G0/G1 (%) (A375 cell line; A375, 6.11 μmol/L): 42.53%
G2/M (%) (A375 cell line; A375, 6.11 μmol/L): 10.94%
S (%) (A375 cell line; A375, 6.11 μmol/L): 38.25%
Sub-G1 (%) (A375 cell line; A375, 6.11 μmol/L): 4.39%
G0/G1 (%) (A375 cell line; A375, 12.21 μmol/L): 47.94%
G2/M (%) (A375 cell line; A375, 12.21 μmol/L): 7.39%
S (%) (A375 cell line; A375, 12.21 μmol/L): 38.13%
Sub-G1 (%) (A375 cell line; A375, 12.21 μmol/L): 2.12%
G0/G1 (%) (A375 cell line; A375, 24.42 μmol/L): 52.73%
G2/M (%) (A375 cell line; A375, 24.42 μmol/L): 5.48%
S (%) (A375 cell line; A375, 24.42 μmol/L): 36.19%
Sub-G1 (%) (A375 cell line; A375, 24.42 μmol/L): 5.48%
effect on cell cycle progression (A375 cell line; A375, 48 h, G0/G1 phase): dose-dependent cell cycle arrest
Inhibition % at 1 μΜ, LTK (TYK1) (LTK (TYK1)): 3%
